Data as given in patent EP4793271A1, “NEUROPROTECTIVE AGENT” (National Center of Neurology and Psychiatry, priority 2023, dated 2025).

How the values were obtained:
[1] = target: T1, hSARM1 (Homo sapiens, UniProt Q6SZW1); assay: Human SARM1 activity measurement in HEK293 cells transiently transfected with ΔN-hSARM1 (PC6 fluorescent probe); format: cell-based; parameters: expressed in transfected cells; host or cells: HEK293, pcDNA3 expression vector; settings: inhibition rate; compound 30 µM; PC6 50 µM; HEK293 cells expressing ΔN-hSARM1; approximately 48 hours from transfection; read-out: Evaluation on hSARM1 inhibitory
T1 sequence (Q6SZW1 28-724): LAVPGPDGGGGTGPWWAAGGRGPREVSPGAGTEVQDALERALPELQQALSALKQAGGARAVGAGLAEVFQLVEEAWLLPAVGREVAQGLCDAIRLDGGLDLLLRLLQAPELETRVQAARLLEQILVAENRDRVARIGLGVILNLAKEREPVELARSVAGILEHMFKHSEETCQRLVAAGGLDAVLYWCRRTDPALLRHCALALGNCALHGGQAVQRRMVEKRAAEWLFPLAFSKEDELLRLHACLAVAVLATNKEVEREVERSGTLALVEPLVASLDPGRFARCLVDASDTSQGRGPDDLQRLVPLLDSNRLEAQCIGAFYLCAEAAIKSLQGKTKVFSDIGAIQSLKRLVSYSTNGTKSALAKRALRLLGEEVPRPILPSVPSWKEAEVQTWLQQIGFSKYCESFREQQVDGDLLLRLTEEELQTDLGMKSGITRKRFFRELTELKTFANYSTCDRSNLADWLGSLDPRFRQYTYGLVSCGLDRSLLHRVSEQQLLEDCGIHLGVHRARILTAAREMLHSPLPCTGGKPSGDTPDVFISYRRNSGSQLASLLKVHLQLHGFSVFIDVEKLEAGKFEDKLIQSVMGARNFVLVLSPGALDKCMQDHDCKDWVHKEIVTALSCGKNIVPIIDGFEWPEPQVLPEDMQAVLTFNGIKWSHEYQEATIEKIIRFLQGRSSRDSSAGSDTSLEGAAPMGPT
In short: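 HEK293 cells in nicotinamide-free DMEM with 5 μM nicotinamide, transiently transfected with mitochondrial-targeting-deleted ΔN-hSARM1; PC6 base-exchange fluorescent probe (50 μM) plus compound (30 μM) added ~8 h post-transfection. Fluorescence (ex 405/em 525 nm) read ~48 h from transfection; inhibition % versus transfected DMSO control, untransfected background subtracted.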

[2] = Pharmacokinetic evaluation after single iv and po administration to mice; format: in vivo, C57BL/6J male mice; settings: for AUC(0-inf) / AUC(0-t) / C0 / half-life / clearance / Vd / Cmax / Tmax: male, C57BL/6J, mouse, plasma; for clearance: read-out: CLtot (converted); for Vd: read-out: Vss; for volume of distribution: result in words
Protocol: The concentrations of compound 35 and its metabolites in plasma were measured, and oral absorbability (bioavailability) was evaluated. Systemic clearance was calculated for the iv administration, and pharmacokinetic features were determined.
The concentrations of compound 76 and its metabolites in plasma were measured, and oral absorbability (bioavailability) was evaluated. Systemic clearance was calculated for the iv administration, and pharmacokinetic features were determined.
The concentration of compound 105 in plasma was measured, and oral absorbability (bioavailability: BA) was evaluated. A half-life, the volume of distribution in a stationary state, and systemic clearance, and the like were calculated for the iv administration, and pharmacokinetic features were determined.

[3] = target: T2, nicotinamide phosphoribosyl transferase (NAMPT) (Homo sapiens, UniProt P43490); assay: NAMPT activity measurement (NMN fluorescence detection); format: biochemical; settings: NAMPT recombinant protein; 10 µM Nam
T2 construct: purchased Medical & Biological Laboratories Co., Ltd. (MBL)
T2 sequence (P43490 whole entry, species assumed): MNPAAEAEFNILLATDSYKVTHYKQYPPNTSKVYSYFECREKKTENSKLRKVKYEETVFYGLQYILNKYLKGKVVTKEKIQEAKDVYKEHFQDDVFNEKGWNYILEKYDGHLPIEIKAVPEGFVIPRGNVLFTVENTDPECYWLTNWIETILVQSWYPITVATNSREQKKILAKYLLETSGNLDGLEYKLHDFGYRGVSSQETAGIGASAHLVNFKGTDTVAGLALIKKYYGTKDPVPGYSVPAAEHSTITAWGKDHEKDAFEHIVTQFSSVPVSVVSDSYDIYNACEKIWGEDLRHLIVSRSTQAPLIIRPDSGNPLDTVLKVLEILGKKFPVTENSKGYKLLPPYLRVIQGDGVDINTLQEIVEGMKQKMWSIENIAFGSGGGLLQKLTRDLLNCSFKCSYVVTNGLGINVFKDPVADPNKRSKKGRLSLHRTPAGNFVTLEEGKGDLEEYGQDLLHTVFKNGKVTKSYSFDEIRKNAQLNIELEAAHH
In short: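 Recombinant NAMPT reacted with 10 µM Nam, 0.5 µM PRPP, 2 µM ATP in Tris pH 7.4 buffer with MgCl2, DTT, BSA; product NMN quantified by fluorescence (ex 421/em 480 nm) after derivatization with 2-acetylbenzofuran. Compounds at 3 nM–10 µM; control-normalized signal used for IC50.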

[4] = 1 mg/kg, iv 1 mg/5 ml/kg single dose
[5] = 10 mg/kg, po 10 mg/10 ml/kg single dose

O=C(NCCCOCCOCCCNC(=O)c1cccnc1)c1cccnc1 [compound 35]
inhibition at 30 µM [1]: > 75% | AUC(0-inf) [2, 4]: 234 ng·h/mL | AUC(0-t) [2, 4]: 228 ng·h/mL | C0 [2, 4]: 1600 ng/mL | half-life [2, 4]: 1.9 h | clearance [2, 4]: 71.4 mL/min/kg | Vd [2, 4]: 1.57 L/kg | AUC(0-inf) [2, 5]: 297 ng·h/mL | AUC(0-t) [2, 5]: 293 ng·h/mL | Cmax [2, 5]: 501 ng/mL | Tmax [2, 5]: 0.25 h | half-life [2, 5]: 1.89 h | volume of distribution [2]: large as compared with the amount of intercellular fluid | Evaluation on NAMPT inhibitory [3]: ○

CC(C)(C)C(=O)Nc1ccc(CNC(=O)c2cccnc2)cn1 [compound 76]
inhibition at 30 µM [1]: > 50% | AUC(0-inf) [2, 4]: 1160 ng·h/mL | AUC(0-t) [2, 4]: 1160 ng·h/mL | C0 [2, 4]: 1940 ng/mL | half-life [2, 4]: 1.14 h | clearance [2, 4]: 14.6 mL/min/kg | Vd [2, 4]: 0.89 L/kg | AUC(0-inf) [2, 5]: 14200 ng·h/mL | AUC(0-t) [2, 5]: 14100 ng·h/mL | Cmax [2, 5]: 9850 ng/mL | Tmax [2, 5]: 0.25 h | half-life [2, 5]: 3.21 h | BA ([2]; po 10 mg/10 ml/kg vs iv 1 mg/5 ml/kg, oral absorbability (bioavailability)): 124% | volume of distribution [2]: large | Evaluation on NAMPT inhibitory [3]: ○

O=C(NCc1ccc(NC(=O)c2ccccc2)nc1)c1cccnc1 [compound 105]
inhibition at 30 µM [1]: > 50% | AUC(0-inf) [2, 4]: 408 ng·h/mL | AUC(0-t) [2, 4]: 391 ng·h/mL | C0 [2, 4]: 1050 ng/mL | half-life [2, 4]: 2.81 h | clearance [2, 4]: 40.9 mL/min/kg | Vd [2, 4]: 3.14 L/kg | AUC(0-inf) [2, 5]: 2420 ng·h/mL | AUC(0-t) [2, 5]: 2410 ng·h/mL | Cmax [2, 5]: 2520 ng/mL | Tmax [2, 5]: 0.25 h | half-life [2, 5]: 4.13 h | volume of distribution [2]: large as compared with the amount of intercellular fluid | Evaluation on NAMPT inhibitory [3]: ○
